Strand notation (5' to 3'): a small letter for the sugar, then the base; units joined by * are phosphorothioate-linked, units joined directly phosphodiester-linked; [ ] holds rarer units or linkages, { } end groups; capitals alone tell only the bases. k = constrained ethyl (cEt); [5mC] = 5-methylcytosine; d = 2'-deoxy (DNA)
tested on: human SMAD7 mRNA; assay: Antisense inhibition of human SMAD7 mRNA expression in Hep3B cells by 3-10-3 cEt gapmers, 10,000 nM, electroporation (Example 2); format: cell-based; conditions: Hep3B cells, 10,000 nM antisense oligonucleotide, electroporation, approximately 24 hours, RT-PCR primer probe set RTS5062, relative to untreated control cells
Protocol: Antisense oligonucleotides were designed to target human SMAD7 mRNA and were tested for their effects on SMAD7 mRNA expression in vitro. The antisense oligonucleotides were tested in a series of experiments that had similar culture conditions, as described below. ION 771576, described in the studies above and which is a 5-10-5 MOE gapmer, was also included in these assays. Cultured Hep3B cells at a density of 20,000 cells per well were transfected using electroporation with 10,000 nM antisense oligonucleotide. After a treatment period of approximately 24 hours, RNA was isolated from the cells and SMAD7 mRNA levels were measured by quantitative real-time PCR. Primer probe set RTS5062 was used to measure human SMAD7 mRNA levels. SMAD7 mRNA levels were adjusted according to total RNA content, as measured by RIBOGREEN®. Results are presented as percent inhibition of SMAD7 mRNA expression, relative to untreated control cells.
The newly designed chimeric antisense oligonucleotides in the Tables below were designed as 3-10-3 cEt gapmers. The gapmers are 16 nucleosides in length, wherein the central gap segment comprises often 2′-deoxynucleosides and is flanked by wing segments on the 5′ direction and the 3′ direction comprising three nucleosides each. Each nucleoside in the 5′ wing segment and each nucleoside in the 3′ wing segment has a cEt sugar modification. The internucleoside linkages throughout each gapmer are phosphorothioate (P═S) linkages. All cytosine residues throughout each gapmer are 5-methylcytosines.
“Start site” indicates the 5′-most nucleoside to which the gapmer is targeted in the human gene sequence. “Stop site” indicates the 3′-most nucleoside to which the gapmer is targeted human gene sequence. […] Some of the oligonucleotides presented were complementary to SMAD7 mRNA sequences RefSeqNo. NM_001190821.1 (designated herein as SEQ ID NO: 3) or RefSeqNo. NM_001190822.1 (designated herein as SEQ ID NO: 4), and are presented in a separate table shown below.

Row | Substance | % Inhibition
1 | 800033 (k[5mC]*kA*k[5mC]*dT*dA*d[5mC]*dA*dG*dA*dG*dA*dT*dT*k[5mC]*k[5mC]*k[5mC]; antisense) [compound 800033] | 52%
2 | 798873 (kG*k[5mC]*kT*dG*dT*dA*d[5mC]*dG*d[5mC]*d[5mC]*dT*dT*d[5mC]*kT*k[5mC]*kG; antisense) [compound 798873] | 27%
3 | 798930 (antisense kG*kA*kA*dA*dA*dT*dA*dT*dT*dA*dG*d[5mC]*dA*kG*k[5mC]*kA) [compound 798930] | 62%
4 | 800078 (antisense kA*k[5mC]*k[5mC]*dT*dT*dA*dA*d[5mC]*dA*dA*dA*dG*d[5mC]*kT*kT*k[5mC]) [compound 800078] | 51%
5 | 798929 (antisense kT*kA*kT*dT*dA*dG*d[5mC]*dA*dG*d[5mC]*dA*dA*dA*kG*kT*kA) [compound 798929] | 41%
6 | 798895 (kT*kG*kT*dA*dG*d[5mC]*dA*d[5mC]*dT*dG*dG*d[5mC]*d[5mC]*k[5mC]*k[5mC]*kA; antisense) [compound 798895] | 53%
7 | 799839 (antisense kA*kG*k[5mC]*dA*d[5mC]*dA*dA*dT*dA*dT*dG*dA*dA*kT*kG*kT) [compound 799839] | 36%

same assay, conditions: Hep3B cells, electroporation with 10,000 nM antisense oligonucleotide, approximately 24 hours, RTS5062, percent inhibition of SMAD7 mRNA relative to untreated control cells

Row | Substance | % Inhibition
8 | 799651 (antisense kA*kG*kG*dA*d[5mC]*dA*dG*d[5mC]*dA*dG*dA*d[5mC]*dA*kG*kG*k[5mC]) [compound 799651] | 55%
9 | 799524 (antisense kA*kT*k[5mC]*dA*dA*dG*dG*dG*d[5mC]*dA*dG*dA*dA*kG*kG*k[5mC]) [compound 799524] | 23%
10 | 799782 (k[5mC]*kA*kT*dA*dA*dT*dA*dG*dG*dT*dG*dT*d[5mC]*kA*kA*kT; antisense) [compound 799782] | 4%
11 | 790714 (kA*kG*k[5mC]*d[5mC]*dA*dG*dT*dT*dA*dA*dT*d[5mC]*dA*kT*kT*kA; antisense) [compound 790714] | 11%
12 | 799546 (kT*kA*k[5mC]*dT*dG*dT*dT*dG*dG*d[5mC]*dA*dG*dT*kG*k[5mC]*kT; antisense) [compound 799546] | 48%
13 | 799590 (k[5mC]*kT*kG*d[5mC]*dA*dG*dT*d[5mC]*dT*dT*d[5mC]*dT*dG*kA*kA*kG; antisense) [compound 799590] | 9%
14 | 799823 (antisense kA*k[5mC]*kA*dG*dG*dA*dA*dA*dG*dT*dG*dG*dA*kG*kG*kA) [compound 799823] | 46%

same assay, conditions: Hep3B cells, electroporation with 10,000 nM antisense oligonucleotide, approximately 24 hours, SMAD7 mRNA by RT-PCR (RTS5062), relative to untreated control cells

Row | Substance | % Inhibition
15 | 830050 (kA*kG*kT*dT*dT*d[5mC]*d[5mC]*dG*dA*dT*dT*dG*dG*k[5mC]*kA*kG; antisense) [compound 830050] | 39%
16 | 772573 (antisense kA*kG*k[5mC]*dA*d[5mC]*dA*d[5mC]*d[5mC]*dA*dG*d[5mC]*dT*d[5mC]*kG*kG*kG) [compound 772573] | 57%
17 | 798831 (kA*kT*kA*dG*dA*dA*dG*dA*dT*dA*dT*d[5mC]*d[5mC]*kA*kG*kA; antisense) [compound 798831] | 0%
18 | 799488 (antisense kT*kG*kG*dA*dA*dG*dA*d[5mC]*dA*d[5mC]*d[5mC]*d[5mC]*d[5mC]*k[5mC]*kA*k[5mC]) [compound 799488] | 42%
19 | 830172 (antisense k[5mC]*kT*kG*d[5mC]*dT*d[5mC]*dT*dG*dT*dT*dT*dG*dG*kA*k[5mC]*kA) [compound 830172] | 27%
20 | 790465 (kA*kA*kG*dG*dA*dG*d[5mC]*dG*dA*dA*d[5mC]*dA*dT*kG*kA*k[5mC]; antisense) [compound 790465] | 54%
21 | 830188 (antisense k[5mC]*k[5mC]*kA*d[5mC]*dT*dT*dA*dG*d[5mC]*dA*dA*dG*dG*kA*kG*k[5mC]) [compound 830188] | 50%
22 | 799981 (kA*k[5mC]*k[5mC]*dA*dA*d[5mC]*dG*dG*dT*dT*dG*d[5mC]*d[5mC]*kT*k[5mC]*kA; antisense) [compound 799981] | 14%

same assay, conditions: Hep3B cells, electroporation with 10,000 nM antisense oligonucleotide, approximately 24 hours, primer probe set RTS5062, relative to untreated control cells

Row | Substance | % Inhibition | % inhibition of SMAD7 mRNA expression
23 | 799134 (antisense kA*k[5mC]*kT*dG*d[5mC]*dT*dA*dA*dG*d[5mC]*dA*dT*dG*kT*k[5mC]*k[5mC]) [compound 799134] | 17% | 
24 | 799206 (kT*kA*kT*dA*dT*dT*dT*dA*d[5mC]*dA*dA*dG*dT*kA*kA*kT; antisense) [compound 799206] | 0% | 
25 | 790631 (kG*kT*kT*dT*dA*dA*dT*dG*dG*dA*dA*d[5mC]*dA*kT*kA*kA; antisense) [compound 790631] | 0% | 
26 | 772708 (kA*kA*kA*dG*dT*dG*d[5mC]*dA*dT*d[5mC]*dT*dT*dT*kT*k[5mC]*kT; antisense) [compound 772708] |  | 0%
27 | 799065 (antisense kA*kA*kA*dT*dA*dA*dT*dT*dG*dG*dT*dT*d[5mC]*kT*kG*kG) [compound 799065] |  | 35%

same assay, conditions: Hep3B cells, electroporation, 10,000 nM antisense oligonucleotide, approximately 24 hours, RTS5062, relative to untreated control cells

Row | Substance | % inhibition of SMAD7 mRNA expression
28 | 799523 (antisense kG*kG*k[5mC]*dA*dG*dA*dA*dG*dG*d[5mC]*dT*d[5mC]*dT*k[5mC]*kT*k[5mC]) [compound 799523] | 28%
29 | 799652 (antisense kA*k[5mC]*kT*d[5mC]*dA*dA*dA*d[5mC]*d[5mC]*dA*dG*dG*dA*k[5mC]*kA*kG) [compound 799652] | 0%
30 | 799716 (antisense kG*kG*k[5mC]*dT*dA*d[5mC]*d[5mC]*dA*dG*d[5mC]*d[5mC]*dT*dT*kG*k[5mC]*kT) [compound 799716] | 32%
31 | 799721 (antisense kG*kT*kA*dA*d[5mC]*dA*d[5mC]*dA*d[5mC]*dA*dG*d[5mC]*dA*kG*kA*kA) [compound 799721] | 42%
32 | 799561 (kG*kG*kA*dA*dT*dG*dA*dA*d[5mC]*dT*dT*dT*dG*k[5mC]*k[5mC]*kT; antisense) [compound 799561] | 45%

same assay, conditions: SMAD7 mRNA, Hep3B cells, 10,000 nM antisense oligonucleotide, electroporation, approximately 24 hours, primer probe set RTS5062, relative to untreated control cells

Row | Substance | % Inhibition
33 | 790519 (k[5mC]*kT*kG*dG*dA*dG*dT*d[5mC]*d[5mC]*dG*dG*dG*dT*kT*kG*kT; antisense) [compound 790519] | 8%
34 | 829794 (kG*kA*kT*d[5mC]*dT*dT*d[5mC]*d[5mC]*d[5mC]*dG*dT*dA*dA*kG*kA*kT; antisense) [compound 829794] | 24%
35 | 829729 (antisense kA*kG*kG*d[5mC]*dG*d[5mC]*dA*dG*dG*d[5mC]*dG*dA*d[5mC]*kA*kG*k[5mC]) [compound 829729] | 66%
36 | 790605 (kA*kT*k[5mC]*dA*dT*dA*d[5mC]*dG*dA*dG*dT*dG*dT*kA*kT*kG; antisense) [compound 790605] | 32%
37 | 790471 (k[5mC]*kG*k[5mC]*d[5mC]*dG*dG*dG*d[5mC]*dG*d[5mC]*dA*d[5mC]*dG*kG*k[5mC]*kT; antisense) [compound 790471] | 4%
38 | 800858 (antisense kA*kG*k[5mC]*d[5mC]*d[5mC]*dA*dA*d[5mC]*dT*dG*dT*dT*dT*kG*kT*k[5mC]) [compound 800858] | 40%

same assay, conditions: SMAD7 mRNA, Hep3B cells, electroporation with 10,000 nM antisense oligonucleotide, approximately 24 hours, primer probe set RTS5062, relative to untreated control cells

Row | Substance | % Inhibition
39 | 829829 (kT*k[5mC]*kT*dG*dA*dA*dA*dG*d[5mC]*d[5mC]*d[5mC]*d[5mC]*d[5mC]*k[5mC]*kA*kG; antisense) [compound 829829] | 11%
40 | 829859 (antisense kT*kT*kT*dT*dG*d[5mC]*dT*d[5mC]*d[5mC]*dG*d[5mC]*dA*d[5mC]*k[5mC]*kT*kT) [compound 829859] | 39%
41 | 829875 (antisense k[5mC]*kG*kG*dG*dT*dT*dG*dT*d[5mC]*d[5mC]*dA*dG*dT*kG*kT*kG) [compound 829875] | 52%
42 | 829882 (antisense kA*kG*kG*d[5mC]*dT*dG*dT*dA*d[5mC]*dG*d[5mC]*d[5mC]*dT*kT*k[5mC]*kT) [compound 829882] | 3%
43 | 830000 (kA*k[5mC]*kT*dG*dT*dT*dT*dG*dT*d[5mC]*dT*dT*dA*kG*k[5mC]*kT; antisense) [compound 830000] | 51%
44 | 829862 (antisense k[5mC]*kT*kG*d[5mC]*dT*dG*d[5mC]*dG*dG*dT*dT*dG*dT*kA*k[5mC]*kA) [compound 829862] | 22%
45 | 829936 (k[5mC]*kA*kG*d[5mC]*dT*dA*dG*dG*dT*dG*dA*dT*dA*kA*k[5mC]*kA; antisense) [compound 829936] | 14%

Reference: patent publication US10517889B2, “Modulators of SMAD7 expression” (Ionis Pharmaceuticals, Inc., priority 2017, dated 2019)
